For 3 compounds, 2T11, K ass and Ki results are on record in ChEMBL document CHEMBL1123310, “Spin probes as mechanistic inhibitors and active site probes of thymidylate synthetase” (J Med Chem, 1986).

For assay [1], the target named is T1, Thymidylate synthase (Lactobacillus casei) (UniProt P00469).
T1 sequence (whole entry): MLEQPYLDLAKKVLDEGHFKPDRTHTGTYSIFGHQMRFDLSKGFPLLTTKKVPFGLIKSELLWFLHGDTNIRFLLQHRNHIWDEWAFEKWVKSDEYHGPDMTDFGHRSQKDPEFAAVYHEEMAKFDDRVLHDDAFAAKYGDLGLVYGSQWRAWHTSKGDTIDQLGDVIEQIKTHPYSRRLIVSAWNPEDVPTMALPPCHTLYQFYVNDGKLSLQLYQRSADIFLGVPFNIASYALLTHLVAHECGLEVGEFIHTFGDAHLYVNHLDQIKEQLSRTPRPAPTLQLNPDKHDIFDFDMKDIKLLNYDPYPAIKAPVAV
Briefly: The high gain spectrum and that of thymidylate synthetase both at high and low peaks indicating its binding activity. Conditions: Lacticaseibacillus casei.

The target in assay [2] is T1, Thymidylate synthase (Lactobacillus casei). Briefly: Association constant (Kassoc) towards Thymidylate synthetase binding site by electron spin resonance. As to conditions: Lacticaseibacillus casei.
In assay [3] the target is T2, Thymidylate synthase (Lactobacillus casei, UniProt P00469).
T2 sequence (P00469 whole entry): T1 sequence (whole entry)
Briefly: In vitro inhibitory activity against Thymidylate synthetase was evaluated. The arrangement: species or system Lacticaseibacillus casei.

For assay [4], the target named is T2, Thymidylate synthase. Kind of assay: In vitro inhibitory activity against Thymidylate synthase was evaluated. Further details: species or system Lacticaseibacillus casei.
For assay [5], the target named is T1, Thymidylate synthase (Lactobacillus casei). As to conditions: Lacticaseibacillus casei.
Description: Association constant (Kassoc) towards Thymidylate synthase binding site by electron spin resonance
Assay [6] shares this target. Conditions: Lacticaseibacillus casei. This is another data set of the same source.

Compound `CC1(C)C=C(C(=O)NC/C=C/c2cn([C@H]3C[C@H](O)[C@@H](CO)O3)c(=O)[nH]c2=O)C(C)(C)N1[O]` displayed a 2T11 in assay [1] of 60. The compound further registered a K ass in assay [2] of 190000 M⁻¹. For the same compound, the Ki in assay [3] turned out to be 9.2 µM.
For `CC1(C)CC(NC(=O)CSc2cn([C@H]3C[C@H](O)[C@@H](CO)O3)c(=O)[nH]c2=O)CC(C)(C)N1[O]`, the affinity in assay [4], expressed as Ki, was 89 µM. Besides, the K ass in assay [5] turned out to be 240000 M⁻¹. Further, the 2T11 in assay [6] was found to be 61.
`NC/C=C/c1cn([C@H]2C[C@H](O)[C@@H](COP(=O)(O)O)O2)c(=O)[nH]c1=O` gave a Ki in assay [3] of 7.9 µM. This counts as single-digit micromolar.
